# Like-named read-outs stand apart in the source and are kept apart here.
# Key:
# male CF1 mice [1] = experiment: Hypolipidemic activity in CF1 mice, intraperitoneal dosing (serum cholesterol and triglyceride); type: in vivo; conditions: for response vs control in vivo at 20 mg/kg: Mus musculus, ip, Table I, 20 mg./kg./day i.p., male CF1 mice; for Serum Cholesterol Day 9 (X ± SD) / Serum Cholesterol Day 16 (X ± SD) / Serum Triglyceride Day 16 (X ± SD) / Serum Triglyceride Day 9 (X ± SD): Table III, CF1 mice, N = 6
# Procedure: For determining hypolipidemic activity, the compounds were suspended in an aqueous 1% carboxymethylcellulose solution and tested at 5 or 20 mg./kg./day administered intraperitoneally to male CF1 mice (~25 g.). On days 9 and 16 blood was collected by tail vein bleeding and the serum separated by centrifugation for three minutes. Serum cholesterol levels were determined by a modified Liebermann-Burchard reaction. Serum triglyceride levels were also determined at 16 days using a Fisher-Hycel Triglyceride Test Kit.
# The test was repeated at a dosage of 8 mg./kg./day.
# (§1) N-n-Octadecyl-N,N-dimethylamine borane was suspended in an aqueous 1% carboxymethylcellulose solution, homogenized, and administered to CF1 male mice (~25 g.) intraperitoneally for 16 days or Sprague Dawley male rats (~350 g.) orally by an intubation needle for 14 days. On days 9 and 14 or 16, blood was obtained by tail vein bleeding and the serum separated by centrifugation for 3 minutes. The serum cholesterol levels were determined by a modification of the Liebermann-Burchard reaction. Serum was also collected on day 14 or 16 and the triglyceride content was determined by a Fisher-Hycel Triglyceride Test Kit.
# Sprague Dawley male rats = experiment: Hypolipidemic activity in Sprague Dawley rats, oral dosing (serum cholesterol and triglyceride); type: in vivo
# Procedure: as §1
# [2] = test system: hyperlipidemic induced mice; experiment: Hypolipidemic activity in diet-induced hyperlipidemic mice; type: in vivo; conditions: 8 mg./kg./day i.p., 12 days
# Procedure: The same compound was tested in mice that had been placed on a commercial diet to produce a "hyperlipidemic" state. […] Serum cholesterol and triglyceride levels were measured at that time. A similar lowering of cholesterol and triglyceride levels in the hyperlipidemic-induced mice was observed.
# Toxicity (LD50) = conditions: in vivo
# acetyl CoA synthetase = biological target: T1, acetyl CoA synthetase (Mus musculus, UniProt Q9QXG4); experiment: Enzymatic studies in vitro: acetyl CoA synthetase; type: biochemical; conditions: at all concentrations tested
# T1 construct: from tissue
# HMG CoA reductase = experiment: Enzymatic studies in vitro: cholesterol synthesis (HMG CoA reductase); type: biochemical; conditions: 200 μM
# Cholesterol 7α hydrolase = biological target: T2, Cholesterol 7α hydrolase (Mus musculus, UniProt Q64505); experiment: Enzymatic studies in vitro: cholesterol 7α hydrolase; type: biochemical
# T2 construct: from tissue; host or cells: liver (inferred; the enzyme is liver-specific)
# [3] = biological target: T3, acyl CoA cholesterol acyl transferase (Mus musculus, UniProt O88908); experiment: Enzymatic studies in vitro: acyl CoA cholesterol acyl transferase; type: biochemical; conditions: read-out: reduction of acyl CoA cholesterol acyl transferase activity
# T3 construct: from tissue
# T3 sequence (O88908 1-525): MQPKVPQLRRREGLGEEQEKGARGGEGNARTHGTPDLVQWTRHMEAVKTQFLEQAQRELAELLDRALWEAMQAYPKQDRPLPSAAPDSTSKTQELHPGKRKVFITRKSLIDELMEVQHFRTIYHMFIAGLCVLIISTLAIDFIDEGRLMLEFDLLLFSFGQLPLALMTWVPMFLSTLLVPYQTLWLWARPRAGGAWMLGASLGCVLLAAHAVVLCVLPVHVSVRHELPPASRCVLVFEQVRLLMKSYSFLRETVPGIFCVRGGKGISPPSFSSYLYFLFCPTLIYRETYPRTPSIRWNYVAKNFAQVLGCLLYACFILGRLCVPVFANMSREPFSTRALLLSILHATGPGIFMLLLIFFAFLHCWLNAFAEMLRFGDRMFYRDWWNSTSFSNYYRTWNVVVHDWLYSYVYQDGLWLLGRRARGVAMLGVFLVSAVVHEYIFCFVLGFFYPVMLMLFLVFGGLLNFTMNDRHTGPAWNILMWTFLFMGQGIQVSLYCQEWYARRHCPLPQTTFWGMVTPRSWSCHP
# Actyl CoA carboxylase = experiment: Enzymatic studies in vitro: acetyl CoA carboxylase; type: biochemical
# [4] = test system: sn-glycerol-3 phosphate acyl transferase; experiment: Enzymatic studies in vitro: sn-glycerol-3 phosphate acyl transferase; type: biochemical
# [5] = test system: Hepatic lipoprotein lipase; experiment: Enzymatic studies in vitro: hepatic lipoprotein lipase induced by heparin; type: biochemical
# [6] = biological target: T4, Cholesterol 7α hydroxylase (Mus musculus, UniProt Q64505); experiment: Enzyme activity after in vivo dosing: cholesterol 7α hydroxylase; conditions: 16 mg/kg
# T4 construct: from tissue; host or cells: liver (inferred; the enzyme is liver-specific)
# [7] = biological target: T3, acyl CoA cholesterol acyl transferase; experiment: Enzyme activity after in vivo dosing: acyl CoA cholesterol acyl transferase; conditions: 8 mg/kg/day
# [8] = test system: sn-Glycerol-3-phosphate acyl transferase; experiment: Enzyme activity after in vivo dosing: sn-glycerol-3-phosphate acyl transferase; conditions: 16 mg/kg/day
# male CF1 mice [9] = experiment: Hypolipidemic activity in CF1 mice, intraperitoneal dosing (serum cholesterol and triglyceride); type: in vivo; conditions: Table III, 4 mg/kg/day i.p., N = 6
# [10] = CF1 male mice, 8 mg/kg/day I.P.
# [11] = Sprague Dawley rats, oral administration at 20 mg/kg/day
# [12] = Table III, 20 mg/kg/day orally, Sprague Dawley rats
# T2 sequence (Q64505 whole entry): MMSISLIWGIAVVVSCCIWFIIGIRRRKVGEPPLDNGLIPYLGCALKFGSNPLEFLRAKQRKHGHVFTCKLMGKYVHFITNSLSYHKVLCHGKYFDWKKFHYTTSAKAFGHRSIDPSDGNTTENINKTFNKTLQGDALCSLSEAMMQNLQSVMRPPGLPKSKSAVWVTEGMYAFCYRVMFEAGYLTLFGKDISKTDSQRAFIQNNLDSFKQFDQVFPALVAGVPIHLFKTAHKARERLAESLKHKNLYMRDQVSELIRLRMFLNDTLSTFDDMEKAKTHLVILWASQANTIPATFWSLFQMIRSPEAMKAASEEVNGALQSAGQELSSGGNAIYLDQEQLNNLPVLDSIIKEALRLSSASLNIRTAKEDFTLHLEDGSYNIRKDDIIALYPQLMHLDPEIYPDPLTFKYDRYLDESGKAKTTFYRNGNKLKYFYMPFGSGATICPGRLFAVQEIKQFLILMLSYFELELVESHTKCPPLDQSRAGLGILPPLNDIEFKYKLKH
# T4 sequence (Q64505 whole entry): as above
# T1 sequence (Q9QXG4 whole entry): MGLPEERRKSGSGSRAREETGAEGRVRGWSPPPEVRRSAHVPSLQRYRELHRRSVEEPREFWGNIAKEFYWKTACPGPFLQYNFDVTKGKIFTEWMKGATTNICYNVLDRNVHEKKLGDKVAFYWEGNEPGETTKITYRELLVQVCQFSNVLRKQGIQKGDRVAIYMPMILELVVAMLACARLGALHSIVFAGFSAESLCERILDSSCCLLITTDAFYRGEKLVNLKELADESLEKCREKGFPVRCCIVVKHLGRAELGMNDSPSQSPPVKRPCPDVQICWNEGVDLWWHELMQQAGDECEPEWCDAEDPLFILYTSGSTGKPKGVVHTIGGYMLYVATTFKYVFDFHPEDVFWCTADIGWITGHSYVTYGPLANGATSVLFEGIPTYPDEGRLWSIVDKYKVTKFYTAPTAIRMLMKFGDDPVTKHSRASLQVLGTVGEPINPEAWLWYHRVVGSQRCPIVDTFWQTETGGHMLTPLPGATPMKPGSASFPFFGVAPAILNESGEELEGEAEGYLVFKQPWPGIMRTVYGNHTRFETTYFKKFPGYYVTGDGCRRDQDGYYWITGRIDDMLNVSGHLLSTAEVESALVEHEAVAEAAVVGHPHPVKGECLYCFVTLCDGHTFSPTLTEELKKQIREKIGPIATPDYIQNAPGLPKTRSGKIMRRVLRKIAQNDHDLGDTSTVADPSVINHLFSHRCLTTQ
structure (smiles),measurement,setting,value
"[BH3-][N+](C)(C)CCCCCCCCCCCCCCCCCC [I, N-n-Octadecyl-N,N-Dimethylamine Borane]",reduction of serum cholesterol levels,male CF1 mice [1]; [10],41%
same,reduction of serum triglyceride levels,male CF1 mice [1]; [10],59%
same,response vs control in vivo at 20 mg/kg,"male CF1 mice [1]; 216 h, day 9, read-out: Serum Cholesterol Day 9",82%
same,response vs control in vivo at 20 mg/kg,"male CF1 mice [1]; 384 h, day 16, read-out: Serum Cholesterol Day 16",79%
same,response vs control in vivo at 20 mg/kg,"male CF1 mice [1]; 384 h, day 16, read-out: Serum Triglyceride Day 16",77%
same,Serum Cholesterol Day 9 (X ± SD),male CF1 mice [1]; 2 mg/kg/day i.p.,71 ± 6% of Control
same,Serum Cholesterol Day 16 (X ± SD),male CF1 mice [1]; 2 mg/kg/day i.p.,61 ± 7% of Control
same,Serum Triglyceride Day 16 (X ± SD),male CF1 mice [1]; 2 mg/kg/day i.p.,45 ± 4% of Control
same,Serum Cholesterol Day 9 (X ± SD),male CF1 mice [1]; 4 mg/kg/day i.p.,69 ± 5% of Control
same,Serum Cholesterol Day 16 (X ± SD),male CF1 mice [1]; 4 mg/kg/day i.p.,59 ± 5% of Control
same,Serum Triglyceride Day 16 (X ± SD),male CF1 mice [1]; 4 mg/kg/day i.p.,49 ± 5% of Control
same,Serum Cholesterol Day 9 (X ± SD),male CF1 mice [1]; 8 mg/kg/day i.p.,79 ± 7% of Control
same,Serum Cholesterol Day 16 (X ± SD),male CF1 mice [1]; 8 mg/kg/day i.p.,59 ± 4% of Control
same,Serum Triglyceride Day 9 (X ± SD),male CF1 mice [1]; 8 mg/kg/day i.p.,87 ± 7% of Control
same,Serum Triglyceride Day 16 (X ± SD),male CF1 mice [1]; 8 mg/kg/day i.p.,41 ± 3% of Control
same,Serum Cholesterol Day 9 (X ± SD),male CF1 mice [1]; 12 mg/kg/day i.p.,62 ± 6% of Control
same,Serum Cholesterol Day 16 (X ± SD),male CF1 mice [1]; 12 mg/kg/day i.p.,61 ± 5% of Control
same,Serum Triglyceride Day 9 (X ± SD),male CF1 mice [1]; 12 mg/kg/day i.p.,58 ± 6% of Control
same,Serum Triglyceride Day 16 (X ± SD),male CF1 mice [1]; 12 mg/kg/day i.p.,56 ± 7% of Control
same,Serum Cholesterol Day 9 (X ± SD),male CF1 mice [1]; 16 mg/kg/day i.p.,60 ± 5% of Control
same,Serum Cholesterol Day 16 (X ± SD),male CF1 mice [1]; 16 mg/kg/day i.p.,61 ± 6% of Control
same,Serum Triglyceride Day 9 (X ± SD),male CF1 mice [1]; 16 mg/kg/day i.p.,73 ± 8% of Control
same,Serum Triglyceride Day 16 (X ± SD),male CF1 mice [1]; 16 mg/kg/day i.p.,63 ± 8% of Control
same,Serum Cholesterol Day 9 (X ± SD),male CF1 mice [1]; 20 mg/kg/day i.p.,82 ± 7% of Control
same,Serum Cholesterol Day 16 (X ± SD),male CF1 mice [1]; 20 mg/kg/day i.p.,79 ± 7% of Control
same,Serum Triglyceride Day 16 (X ± SD),male CF1 mice [1]; 20 mg/kg/day i.p.,77 ± 7% of Control
same,Serum Cholesterol Day 9 (X ± SD),male CF1 mice [1]; 40 mg/kg/day i.p.,83 ± 6% of Control
same,Serum Cholesterol Day 16 (X ± SD),male CF1 mice [1]; 40 mg/kg/day i.p.,79 ± 8% of Control
same,Serum Triglyceride Day 16 (X ± SD),male CF1 mice [1]; 40 mg/kg/day i.p.,93 ± 6% of Control
same,Serum Cholesterol Day 9 (X ± SD),male CF1 mice [1]; 60 mg/kg/day i.p.,81 ± 6% of Control
same,Serum Cholesterol Day 16 (X ± SD),male CF1 mice [1]; 60 mg/kg/day i.p.,82 ± 6% of Control
same,Serum Triglyceride Day 16 (X ± SD),male CF1 mice [1]; 60 mg/kg/day i.p.,113 ± 4% of Control
same,optimum dosage,male CF1 mice [1]; in mice,about 8 mg./kg./day
same,lowering of serum triglyceride levels,Sprague Dawley male rats; [11],35%
same,reduction of serum cholesterol levels,Sprague Dawley male rats; [11],54%
same,Serum Cholesterol Day 9 (X ± SD),Sprague Dawley male rats; [12],82 ± 8% of Control
same,Serum Cholesterol Day 14 (X ± SD),Sprague Dawley male rats; [12],46 ± 5% of Control
same,Serum Triglyceride Day 9 (X ± SD),Sprague Dawley male rats; [12],82 ± 7% of Control
same,Serum Triglyceride Day 14 (X ± SD),Sprague Dawley male rats; [12],65 ± 6% of Control
same,optimum dosage,Sprague Dawley male rats; in rats,about 20 mg./kg.
same,serum cholesterol level after treatment,"[2]; hyperlipidemic induced mice (elevated to 375 mg %, control 128 mg %)",180 mg %
same,reduction of serum cholesterol level,[2]; hyperlipidemic induced mice,52%
same,serum triglyceride level after treatment,"[2]; hyperlipidemic mice (elevated to 367 mg/dl, normal 137 mg/dl)",187 mg %
same,reduction of serum triglyceride level,[2]; hyperlipidemic mice,49%
same,LD50,Toxicity (LD50),> 500 mg/kg
same,reduction of acetyl CoA synthetase activity,acetyl CoA synthetase,more than 50%
same,reduction of cholesterol synthesis (HMG CoA reductase),HMG CoA reductase,38%
same,effect on cholesterol 7α hydrolase activity,Cholesterol 7α hydrolase,unaffected
same,inhibition at 100 µM,[3]; 100 μM,41%
same,inhibition at 200 µM,[3]; 200 μM,55%
same,effect on Actyl CoA carboxylase activity,Actyl CoA carboxylase,unaffected
same,effect on sn-glycerol-3 phosphate acyl transferase activity,[4],unaffected
same,reduction of hepatic lipoprotein lipase activity,[5]; 100 μM,23%
same,reduction of hepatic lipoprotein lipase activity,[5]; 200 μM,23%
same,reduction of cholesterol 7α hydroxylase activity,[6],35%
same,lowering of acyl CoA cholesterol acyl transferase activity,[7],52%
same,reduction of sn-glycerol-3-phosphate acyl transferase activity,[8],33%
same,Serum Triglyceride Day 9 (X ± SD),male CF1 mice [9],80 ± 9% of Control
